Experimental data: patent EP3628672A1 (priority 2018, dated 2020)
Read-outs that look alike come from different tables or passages of the source.

Experiments:
[1] = target: T1, purified LasB protein from P. aeruginosa (Pseudomonas aeruginosa, UniProt P14756); assay: Fluorometric assay to determine Ki (Abz-Ala-Gly-Leu-Ala-p-Nitro-Benzyl-Amide substrate); assay type: biochemical
T1 construct: purchased Merck or Charles River Laboratories
In short: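 Purified P. aeruginosa LasB (10–140 ng/ml) with 250 µM Abz-Ala-Gly-Leu-Ala-p-nitrobenzylamide in 50 mM Tris-HCl pH 7.4, 2.5 mM CaCl2, 0.01% Triton X100, 37 °C; hydrolysis fluorescence (Ex 340/Em 415 nm) followed over 30 min, inhibitor 0.0016–200 µM. Ki = IC50/(1+[S]/Km), Km 214 µM.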

LasB = target: T2, LasB (Pseudomonas aeruginosa, UniProt P14756); assay: Elastin assay to determine % inhibition (Elastin Congo-Red, dialysed culture supernatant); assay type: biochemical, P. aeruginosa PAO1; conditions: read-out: Elastin hydrolysis % inhibition @ 50 / 25 µM inhibitor concentration
T2 construct: uses as source of enzyme dialysed supernatant from P. aeruginosa PAO1; endogenous in cells; host or cells: P. aeruginosa PAO1 culture supernatant, filtered and dialysed
T2 sequence (P14756 198-498): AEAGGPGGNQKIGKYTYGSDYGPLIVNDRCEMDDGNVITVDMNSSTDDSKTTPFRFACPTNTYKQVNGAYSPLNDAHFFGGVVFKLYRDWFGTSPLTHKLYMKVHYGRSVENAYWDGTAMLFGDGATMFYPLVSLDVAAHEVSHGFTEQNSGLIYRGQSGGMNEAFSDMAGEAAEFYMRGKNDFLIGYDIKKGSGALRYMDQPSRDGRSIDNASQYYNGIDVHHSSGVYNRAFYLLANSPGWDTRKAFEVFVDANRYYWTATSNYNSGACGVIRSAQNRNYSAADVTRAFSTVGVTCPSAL
Procedure: Experiments were therefore conducted (1) to measure the potency of inhibition of compounds of the invention against purified Pseudomonas aeruginosa LasB enzyme and also experiments were conducted (2) to measure the ability of compounds of the invention to inhibit LasB-catalysed elastin degradation. The first assay uses a commercial fluorescent synthetic peptide and purified LasB enzyme. The LasB hydrolysis kinetics are measured allowing the determination of the IC50 and Ki of the inhibitors; the second is a more physiological assay using dialysed Pseudomonas aeruginosa supernatant as source of enzyme, plus its natural substrate Elastin. It is an "end point assay" that determines the percentage of LasB inhibition by each compound for one particular time point and inhibitor concentration. Technical details are described below:
The Elastin assay uses as source of enzyme dialysed supernatant from P. aeruginosa PAO1 and the Elastin Congo-Red as substrate. The natural LasB substrate, elastin, is complexed with the congo-red dye (Elastin Congo-Red, ECR). The elastolysis activity from the culture supernatant will degrade elastin and release the congo-red dye into the supernatant. This red dye release can be measured with a spectrophotometer.
Method: To determine LasB elastase activity and assess compound inhibition, an overnight culture of P. aeruginosa strain PAO1 is diluted in LB medium. After reaching an OD600nm of 0.6, this culture is diluted and incubated for additional 18-24 hours in a shaking incubator. Culture supernatants are recovered by centrifugation and filtrated through a […] filter. These supernatants are dialysed (filtration molecules < 20kDa) into a 50 mM Tris-HCl pH 7.4, 2.5 mM CaCl2 solution at 4°C under agitation for 24 hours. Supernatant dialysed is then mixed volume/volume with the ECR suspension (20 mg/mL of ECR in 100 mM Tris-HCl pH 7.4 buffer supplemented with 1 mM CaCl2) supplemented with Triton X100 (final concentration of 0.01%) in presence of DMSO (positive control) and/or different concentrations of compound (routinely 50 to 1.56 µM). As a negative control, the dialysed supernatant is replaced by Tris-HCl solution (50 mM Tris-HCl pH 7.4, 2.5 mM CaCl2). The mixed reaction is then incubated overnight in a 37°C shaking incubator. The reaction supernatant is recovered by centrifugation and the release of congo-red is measured by its absorbance at 495 nm (OD495nm).
Percentage inhibition is determined using the following equation: ((OD495nmvalue of positive control−OD495nmvalue of negative control)−(OD495nmvalue of treated supernatant−OD495nmvalue of positive control))/(OD495nmvalue of positive control−OD495nmvalue of negative control) × 100. [formula]

T1 sequence (P14756 198-498): as above

`CN1CCN(C(=O)COc2cccc(-c3csc(CNC(=O)C4(CC(=O)O)Cc5ccccc5C4)n3)c2)CC1` [Example 54, 2-[2-[[4-[3-[2-(4-methylpiperazin-1-yl)-2-oxo-ethoxy]phenyl]thiazol-2-yl]methylcarbamoyl]indan-2-yl]acetic acid] gave a Ki ([1]; Ki calculated from IC50, [S] = 250 µM, Km = 214 µM, 37°C, pH 7.4) of 200 to 10000 nM and an inhibition at 25 µM (LasB) of 60 to 75%.
For `O=C(O)CC1(C(=O)NCc2nc(-c3ccc(OCCCN4CCOCC4)cc3)cs2)Cc2ccccc2C1` [Example 55, 2-[2-[[4-[4-(3-morpholinopropoxy)phenyl]thiazol-2-yl]methylcarbamoyl]indan-2-yl]acetic acid], the Ki [1] was 50 to 200 nM and the inhibition at 25 µM (LasB) was 60 to 75%.
`C[N+]1(CCCOc2ccc(-c3csc(CNC(=O)C4(CC(=O)[O-])Cc5ccccc5C4)n3)cc2)CCOCC1` [Example 56, 2-[2-[[4-[4-[3-(4-methylmorpholin-4-ium-4-yl)propoxy]phenyl]thiazol-2-yl]methylcarbarmoyl]indan-2-yl]acetate] was tested, and the Ki [1] was 50 to 200 nM and the inhibition at 25 µM (LasB) was 60 to 75%.
Work on `CN1CCN(CCCOc2ccc(-c3csc(CNC(=O)C4(CC(=O)O)Cc5ccccc5C4)n3)cc2)CC1` [Example 57, 2-[2-[[4-[4-[3-(4-methylpiperazin-1-yl)propoxy]phenyl]thiazol-2-yl]methylcarbamoyl]indan-2-yl]acetic acid] yielded a Ki [1] of 50 to 200 nM and an inhibition at 25 µM (LasB) of 60 to 75%.
Work on `O=C(O)CC1(C(=O)NCc2nc(-c3ccc(OCCCN4CCCC4)cc3)cs2)Cc2ccccc2C1` [Example 58, 2-[2-[[4-[4-(3-pyrrolidin-1-ylpropoxy)phenyl]thiazol-2-yl]methylcarbamoyl]indan-2-yl]acetic acid] yielded a Ki [1] of 50 to 200 nM and an inhibition at 25 µM (LasB) of 60 to 75%.
`O=C([O-])CC1(C(=O)NCc2nc(-c3ccc(OCCC[n+]4ccccc4)cc3)cs2)Cc2ccccc2C1` [Example 59, 2-[2-[[4-[4-(3-pyridm-1-ium-1-ylpropoxy)phenyl]thiazol-2-yl]methylcarbamoyl]indan-2-yl]acetate] gave a Ki [1] of 50 to 200 nM and an inhibition at 25 µM (LasB) of 60 to 75%.
Compound `CS(=O)(=O)c1cc(-c2csc(CNC(=O)C3(CC(=O)O)Cc4ccccc4C3)n2)ccc1OCCCN1CCOCC1` [Example 60, 2-[2-[[4-[3-methylsulfonyl-4-(3-morpholinopropoxy)phenyl]thiazol-2-yl]methylcarbamoyl]indan-2-yl]acetic acid] has a Ki [1] of under 50 nM and an inhibition at 25 µM (LasB) of 60 to 75%.
`C[N+]1(CCCOc2ccc(-c3csc(CNC(=O)C4(CC(=O)[O-])Cc5ccccc5C4)n3)cc2S(C)(=O)=O)CCOCC1` [Example 61, 2-[2-[[4-[4-[3-(4-methylmorpholin-4-ium-4-yl)propoxy]-3-methylsulfonyl-phenyl]thiazol-2-yl]methylcarbamoyl]indan-2-yl]acetate] was tested, and the Ki [1] was 50 to 200 nM and the inhibition at 25 µM (LasB) was 60 to 75%.
`C[N+]1(CCCOc2ccc(-c3csc(CNC(=O)C4(CC(=O)[O-])Cc5cc(F)c(F)cc5C4)n3)cc2S(C)(=O)=O)CCOCC1` [Example 62, 2-[5,6-difluoro-2-[[4-[4-[3-(4-methylmorpholin-4-ium-4-yl)propoxy]-3-methylsulfonyl-phenyl]thiazol-2-yl]methylcarbamoyl]indan-2-yl]acetate] gave a Ki [1] of 50 to 200 nM and an inhibition at 25 µM (LasB) of 60 to 75%.
In the case of `COc1cc(OCC(=O)N2CCN(C)CC2)ccc1-c1csc(CNC(=O)C2(CC(=O)O)Cc3ccccc3C2)n1` [Example 63, 2-[2-[[4-[2-methoxy-4-[2-(4-methylpiperazin-1-yl)-2-oxo-ethoxy]phenyl]thiazol-2-yl]methylcarbamoyl]indan-2-yl]acetic acid], the Ki [1] is reported as 50 to 200 nM and the inhibition at 25 µM (LasB) is reported as over 75%.
`COc1cc(OCC(=O)N2CC([N+](C)(C)C)C2)ccc1-c1csc(CNC(=O)C2(CC(=O)[O-])Cc3cc(F)c(F)cc3C2)n1` [Example 64, 2-[5,6-difluoro-2-[[4-[2-methoxy-4-[2-oxo-2-[3-(trimethylammonio)azetidin-1-yl]ethoxy]phenyl]thiazol-2-yl]methylcarbamoyl]indan-2-yl]acetate] showed a Ki [1] of 50 to 200 nM and an inhibition at 25 µM (LasB) of 60 to 75%.
Compound `COc1cc(OCC[N+]2(C)CCOCC2)ccc1-c1csc(CNC(=O)C2(CC(=O)[O-])Cc3ccccc3C2)n1` [Example 67, 2-[2-[[4-[2-methoxy-4-[2-(4-methylmorpholin-4-ium-4-yl)ethoxy]phenyl]thiazol-2-yl]methylcarbamoyl]indan-2-yl] acetate] has a Ki [1] of 50 to 200 nM and an inhibition at 25 µM (LasB) of 60 to 75%.
Compound `COc1cc(OCC[N+]2(C)CCOCC2)ccc1-c1csc(CNC(=O)C2(CC(=O)[O-])Cc3cc(F)c(F)cc3C2)n1` [Example 68, 2-[5,6-difluoro-2-[[4-[2-methoxy-4-[2-(4-methylmorpholin-4-ium-4-yl)ethoxy]phenyl]thiazol-2-yl]methylcarbamoyl]indan-2-yl]acetate] has a Ki [1] of 50 to 200 nM and an inhibition at 25 µM (LasB) of 60 to 75%.
In the case of `COc1cc(OCCC[N+]2(C)CCOCC2)ccc1-c1csc(CNC(=O)C2(CC(=O)[O-])Cc3ccccc3C2)n1` [Example 69, 2-[2-[[4-[2-methoxy-4-[3-(4-methylmorpholin-4-ium-4-yl)propoxy]phenyl]thiazol-2-yl]methylcarbamoyl]indan-2-yl]acetate], the Ki [1] is reported as 50 to 200 nM and the inhibition at 25 µM (LasB) is reported as 10 to 60%.
With `COc1cc(OCCC[N+]2(C)CCOCC2)ccc1-c1csc(CNC(=O)C2(CC(=O)[O-])Cc3cc(F)c(F)cc3C2)n1` [Example 70, 2-[5,6-difluoro-2-[[4-[2-methoxy-4-[3-(4-methylmorpholin-4-ium-4-yl)propoxy]phenyl]thiazol-2-yl]methylcarbamoyl]indan-2-yl]acetate] the Ki [1] was 50 to 200 nM and the inhibition at 25 µM (LasB) was 60 to 75%.
In the case of `COc1cc(OCCCN2CCOCC2)ccc1-c1csc(CNC(=O)C2(CC(=O)O)Cc3ccccc3C2)n1` [Example 71, 2-[2-[[4-[2-methoxy-4-(3-morpholinopropoxy)phenyl]thiazol-2-yl]methylcarbamoyl]indan-2-yl]acetic acid], the Ki [1] is reported as under 50 nM and the inhibition at 25 µM (LasB) is reported as over 75%.
`COc1cc(OCCCN2CCCC2)ccc1-c1csc(CNC(=O)C2(CC(=O)O)Cc3cc(F)c(F)cc3C2)n1` [Example 72, 2-[5,6-difluoro-2-[[4-[2-methoxy-4-(3-pyrrolidin-1-ylpropoxy)phenyl]thiazol-2-yl]methylcarbamoyl]indan-2-yl]acetic acid] gave a Ki [1] of under 50 nM and an inhibition at 25 µM (LasB) of 10 to 60%.
For `COc1cc(OCCC[N+]2(C)CCCC2)ccc1-c1csc(CNC(=O)C2(CC(=O)[O-])Cc3cc(F)c(F)cc3C2)n1` [Example 73, 2-[5,6-difluoro-2-[[4-[2-methoxy-4-[3-(1-methylpyrrolidin-1-ium-1-yl)propoxy]phenyl]thiazol-2-yl]methylcarbamoyl]indan-2-yl)acetate], the Ki [1] was 50 to 200 nM and the inhibition at 25 µM (LasB) was 60 to 75%.
For `COc1cc(OCc2ccncc2)ccc1-c1csc(CNC(=O)C2(CC(=O)O)Cc3ccccc3C2)n1` [Example 74, 2-[2-[[4-[2-methoxy-4-(4-pyridylmethoxy)phenyl]thiazol-2-yl]methylcarbamoyl]indan-2-yl]acetic acid], the Ki [1] was under 50 nM and the inhibition at 25 µM (LasB) was over 75%.
In the case of `COc1cc(OCc2cc[n+](C)cc2)ccc1-c1csc(CNC(=O)C2(CC(=O)[O-])Cc3ccccc3C2)n1` [Example 75, 2-[2-[[4-[2-methoxy-4-[(1-methylpyridin-1-ium-4-yl)methoxy]phenyl]thiazol-2-yl]methylcarbamoyl]indan-2-yl]acetate], the Ki [1] is reported as 50 to 200 nM and the inhibition at 25 µM (LasB) is reported as 60 to 75%.
`COc1cc(OCCN2CCOCC2)ccc1-c1csc(CNC(=O)C2(CC(=O)O)Cc3ccccc3C2)n1` [Example 76, 2-[2-[[4-[2-methoxy-4-(2-morpholinoethoxy)phenyl]thiazol-2-yl]methylcarbamoyl]indan-2-yl]acetic acid] showed a Ki [1] of under 50 nM and an inhibition at 25 µM (LasB) of over 75%.
In the case of `COc1cc(OCc2ccc[n+](C)c2)ccc1-c1csc(CNC(=O)C2(CC(=O)[O-])Cc3ccccc3C2)n1` [Example 77, 2-[2-[[4-[2-methoxy-4-[(1-methylpyridin-1-ium-3-yl)methoxy]phenyl]thiazol-2-yl]methylcarbamoyl]indan-2-yl]acetate], the Ki [1] is reported as 50 to 200 nM and the inhibition at 25 µM (LasB) is reported as 10 to 60%.
